Reference: the NIST ThermoML archive (doi:10.1021/je700755t)
± gives the expanded uncertainty stated by the source.

Experiment: xn = mol fraction of the nth substance listed
Details: 101 kPa, Liquid; for viscosity: Capillary tube (Ostwald / Ubbelohde) method

CC(=O)O [acetic acid] + CN(C)C=O
Details	mass density [kg/m3]	viscosity [mPa·s]
303.15 K, x1 = 0.1004	950.1 ± 0.42	0.847 ± 0.008
303.15 K, x1 = 0.2009	961.18 ± 0.38	0.967 ± 0.009
303.15 K, x1 = 0.3012	972.65 ± 0.35	1.108 ± 0.009
303.15 K, x1 = 0.4014	984.49 ± 0.32	1.283 ± 0.01
303.15 K, x1 = 0.5014	996.33 ± 0.29	1.457 ± 0.011
303.15 K, x1 = 0.6014	1007.74 ± 0.3	1.613 ± 0.012
303.15 K, x1 = 0.7011	1018.12 ± 0.34	1.656 ± 0.012
303.15 K, x1 = 0.8008	1027.13 ± 0.38	1.582 ± 0.012
303.15 K, x1 = 0.9006	1034.47 ± 0.4	1.375 ± 0.011
303.15 K, x1 = 1	1038.66 ± 0.42	1.059 ± 0.009
313.15 K, x1 = 0.1004	940.75 ± 0.45	0.75 ± 0.008
313.15 K, x1 = 0.2009	951.76 ± 0.41	0.848 ± 0.008
313.15 K, x1 = 0.3012	963.18 ± 0.38	0.973 ± 0.009
313.15 K, x1 = 0.4014	974.95 ± 0.35	1.112 ± 0.009
313.15 K, x1 = 0.5014	986.68 ± 0.32	1.249 ± 0.01
313.15 K, x1 = 0.6014	997.98 ± 0.29	1.357 ± 0.011
313.15 K, x1 = 0.7011	1008.11 ± 0.31	1.39 ± 0.011
313.15 K, x1 = 0.8008	1016.84 ± 0.34	1.331 ± 0.011
313.15 K, x1 = 0.9006	1023.84 ± 0.37	1.166 ± 0.01
313.15 K, x1 = 1	1027.37 ± 0.39	0.92 ± 0.009
323.15 K, x1 = 0.1004	931.27 ± 0.47	0.669 ± 0.007
323.15 K, x1 = 0.2009	942.27 ± 0.44	0.752 ± 0.008
323.15 K, x1 = 0.3012	953.63 ± 0.41	0.85 ± 0.008
323.15 K, x1 = 0.4014	965.33 ± 0.38	0.965 ± 0.009
323.15 K, x1 = 0.5014	976.95 ± 0.35	1.071 ± 0.009
323.15 K, x1 = 0.6014	988.11 ± 0.32	1.157 ± 0.01
323.15 K, x1 = 0.7011	998.02 ± 0.29	1.18 ± 0.01
323.15 K, x1 = 0.8008	1006.49 ± 0.31	1.132 ± 0.01
323.15 K, x1 = 0.9006	1013.13 ± 0.34	1.002 ± 0.009
323.15 K, x1 = 1	1016.08 ± 0.35	0.804 ± 0.008
333.15 K, x1 = 0.1004	921.19 ± 0.51	0.597 ± 0.007
333.15 K, x1 = 0.2009	932.18 ± 0.47	0.673 ± 0.007
333.15 K, x1 = 0.3012	943.49 ± 0.44	0.755 ± 0.008
333.15 K, x1 = 0.4014	955.11 ± 0.41	0.843 ± 0.008
333.15 K, x1 = 0.5014	966.55 ± 0.38	0.935 ± 0.009
333.15 K, x1 = 0.6014	977.59 ± 0.35	0.998 ± 0.009
333.15 K, x1 = 0.7011	987.28 ± 0.32	1.015 ± 0.009
333.15 K, x1 = 0.8008	995.48 ± 0.3	0.976 ± 0.009
333.15 K, x1 = 0.9006	1001.78 ± 0.3	0.87 ± 0.008
333.15 K, x1 = 1	1005.04 ± 0.32	0.709 ± 0.008
343.15 K, x1 = 0.1004	911.56 ± 0.54	0.547 ± 0.007
343.15 K, x1 = 0.2009	922.54 ± 0.51	0.607 ± 0.007
343.15 K, x1 = 0.3012	933.82 ± 0.47	0.674 ± 0.007
343.15 K, x1 = 0.4014	945.35 ± 0.44	0.749 ± 0.008
343.15 K, x1 = 0.5014	956.68 ± 0.41	0.824 ± 0.008
343.15 K, x1 = 0.6014	967.55 ± 0.38	0.873 ± 0.008
343.15 K, x1 = 0.7011	977.06 ± 0.36	0.885 ± 0.008
343.15 K, x1 = 0.8008	984.99 ± 0.34	0.852 ± 0.008
343.15 K, x1 = 0.9006	990.93 ± 0.32	0.764 ± 0.008
343.15 K, x1 = 1	993.69 ± 0.32	0.632 ± 0.007
353.15 K, x1 = 0.1004	901.58 ± 0.57	0.499 ± 0.007
353.15 K, x1 = 0.2009	912.55 ± 0.54	0.551 ± 0.007
353.15 K, x1 = 0.3012	923.82 ± 0.5	0.608 ± 0.007
353.15 K, x1 = 0.4014	935.28 ± 0.47	0.67 ± 0.007
353.15 K, x1 = 0.5014	946.48 ± 0.44	0.73 ± 0.008
353.15 K, x1 = 0.6014	957.19 ± 0.41	0.771 ± 0.008
353.15 K, x1 = 0.7011	966.49 ± 0.39	0.78 ± 0.008
353.15 K, x1 = 0.8008	974.17 ± 0.37	0.751 ± 0.008
353.15 K, x1 = 0.9006	979.73 ± 0.36	0.677 ± 0.008
353.15 K, x1 = 1	982.95 ± 0.35	0.57 ± 0.007

O=CO [formic acid] + CN(C)C=O
Details	mass density [kg/m3]	viscosity [mPa·s]
303.15 K, x1 = 0.1001	953.65 ± 0.31	0.831 ± 0.008
303.15 K, x1 = 0.2	969.23 ± 0.29	0.93 ± 0.009
303.15 K, x1 = 0.3001	986.66 ± 0.26	1.048 ± 0.009
303.15 K, x1 = 0.4	1006.16 ± 0.26	1.186 ± 0.01
303.15 K, x1 = 0.4999	1027.99 ± 0.33	1.324 ± 0.011
303.15 K, x1 = 0.6003	1053.17 ± 0.42	1.466 ± 0.012
303.15 K, x1 = 0.7005	1081.71 ± 0.52	1.555 ± 0.013
303.15 K, x1 = 0.7998	1115.25 ± 0.64	1.562 ± 0.013
303.15 K, x1 = 0.9002	1157.02 ± 0.79	1.533 ± 0.013
303.15 K, x1 = 1	1205.07 ± 0.96	1.437 ± 0.013
313.15 K, x1 = 0.1001	943.97 ± 0.34	0.738 ± 0.008
313.15 K, x1 = 0.2	959.57 ± 0.31	0.815 ± 0.008
313.15 K, x1 = 0.3001	977.07 ± 0.28	0.92 ± 0.009
313.15 K, x1 = 0.4	996.43 ± 0.25	1.028 ± 0.009
313.15 K, x1 = 0.4999	1018.12 ± 0.31	1.143 ± 0.01
313.15 K, x1 = 0.6003	1043.03 ± 0.39	1.253 ± 0.011
313.15 K, x1 = 0.7005	1071.28 ± 0.49	1.313 ± 0.011
313.15 K, x1 = 0.7998	1104.39 ± 0.61	1.342 ± 0.012
313.15 K, x1 = 0.9002	1145.58 ± 0.75	1.33 ± 0.012
313.15 K, x1 = 1	1192.81 ± 0.92	1.205 ± 0.012
323.15 K, x1 = 0.1001	934.86 ± 0.36	0.662 ± 0.007
323.15 K, x1 = 0.2	950.34 ± 0.33	0.725 ± 0.008
323.15 K, x1 = 0.3001	967.77 ± 0.3	0.808 ± 0.008
323.15 K, x1 = 0.4	986.86 ± 0.28	0.898 ± 0.009
323.15 K, x1 = 0.4999	1008.39 ± 0.29	0.992 ± 0.009
323.15 K, x1 = 0.6003	1033.04 ± 0.37	1.076 ± 0.01
323.15 K, x1 = 0.7005	1060.99 ± 0.46	1.121 ± 0.01
323.15 K, x1 = 0.7998	1093.73 ± 0.58	1.14 ± 0.011
323.15 K, x1 = 0.9002	1134.05 ± 0.72	1.117 ± 0.011
323.15 K, x1 = 1	1180.63 ± 0.89	1.022 ± 0.01
333.15 K, x1 = 0.1001	924.58 ± 0.38	0.59 ± 0.007
333.15 K, x1 = 0.2	939.91 ± 0.35	0.649 ± 0.007
333.15 K, x1 = 0.3001	957.33 ± 0.33	0.72 ± 0.008
333.15 K, x1 = 0.4	976.15 ± 0.3	0.793 ± 0.008
333.15 K, x1 = 0.4999	997.5 ± 0.27	0.867 ± 0.009
333.15 K, x1 = 0.6003	1021.94 ± 0.34	0.933 ± 0.009
333.15 K, x1 = 0.7005	1049.51 ± 0.44	0.971 ± 0.009
333.15 K, x1 = 0.7998	1081.77 ± 0.55	0.982 ± 0.01
333.15 K, x1 = 0.9002	1121.74 ± 0.69	0.959 ± 0.01
333.15 K, x1 = 1	1167.44 ± 0.85	0.879 ± 0.009
343.15 K, x1 = 0.1001	915.36 ± 0.4	0.538 ± 0.007
343.15 K, x1 = 0.2	930.7 ± 0.38	0.587 ± 0.007
343.15 K, x1 = 0.3001	947.93 ± 0.35	0.643 ± 0.007
343.15 K, x1 = 0.4	966.58 ± 0.32	0.708 ± 0.008
343.15 K, x1 = 0.4999	987.75 ± 0.29	0.768 ± 0.008
343.15 K, x1 = 0.6003	1011.92 ± 0.32	0.823 ± 0.008
343.15 K, x1 = 0.7005	1039.13 ± 0.41	0.85 ± 0.009
343.15 K, x1 = 0.7998	1070.96 ± 0.52	0.857 ± 0.009
343.15 K, x1 = 0.9002	1110.03 ± 0.66	0.835 ± 0.009
343.15 K, x1 = 1	1154.99 ± 0.82	0.766 ± 0.009
353.15 K, x1 = 0.1001	905.11 ± 0.43	0.492 ± 0.007
353.15 K, x1 = 0.2	920.26 ± 0.4	0.534 ± 0.007
353.15 K, x1 = 0.3001	937.3 ± 0.37	0.582 ± 0.007
353.15 K, x1 = 0.4	955.9 ± 0.34	0.635 ± 0.007
353.15 K, x1 = 0.4999	976.91 ± 0.32	0.693 ± 0.008
353.15 K, x1 = 0.6003	1000.84 ± 0.29	0.732 ± 0.008
353.15 K, x1 = 0.7005	1027.78 ± 0.38	0.754 ± 0.008
353.15 K, x1 = 0.7998	1059.18 ± 0.49	0.756 ± 0.008
353.15 K, x1 = 0.9002	1097.86 ± 0.63	0.736 ± 0.008
353.15 K, x1 = 1	1142.08 ± 0.78	0.677 ± 0.008
